Measured values published in publication PMC9544187 (Environmental Toxicology and Chemistry, 2022).
Where two headings read alike, the source gives them in different places.

Columns and labels:
[1] = Urinary concentrations of NNI compounds in wild raccoons; type: in vivo, raccoon, Procyon lotor; details: for GM ± SD urinary concentration / Percentile 25th urinary concentration / Percentile 50th urinary concentration / Percentile 75th urinary concentration / Percentile 95th urinary concentration / Percentile 100th urinary concentration: raccoon urine, n = 59
[2] = Japanese people, n = 45; ref Ikenaka et al. ([2019]); cited from earlier work
[3] = obtained from previous studies on humans; ref Ikenaka et al., [2019]; cited from earlier work
[4] = mice, 78‐week carcinogenicity study; ref Hirano et al., [2018]; cited from earlier work
[5] = Raccoons: present study (n = 59)

Row | SMILES | Mean urinary neonicotinoid concentration [1, 5] [µg/g creatinine] | GM ± SD urinary concentration ([1]; creatinine‐adjusted) [μg/g creatinine] | Percentile 25th urinary concentration ([1]; creatinine‐adjusted) | Percentile 50th urinary concentration ([1]; creatinine‐adjusted) | Percentile 75th urinary concentration ([1]; creatinine‐adjusted) | Percentile 95th urinary concentration ([1]; creatinine‐adjusted) | Percentile 100th urinary concentration ([1]; creatinine‐adjusted) | GM ± SD urinary concentration ([1]; volume‐adjusted) [µg/L] | Percentile 25th urinary concentration ([1]; volume‐adjusted) | Percentile 50th urinary concentration ([1]; volume‐adjusted) | Percentile 75th urinary concentration ([1]; volume‐adjusted) | Percentile 95th urinary concentration ([1]; volume‐adjusted) | Percentile 100th urinary concentration ([1]; volume‐adjusted) | Maximum urinary neonicotinoid concentration [2] [µg/g creatinine] | Mean urinary neonicotinoid concentration [2] [µg/g creatinine] | urinary excretion correction coefficient r [3] | no‐observable‐adverse‐effect level (NOAEL) [4] [mg/kg] | Maximum urinary neonicotinoid concentration [1, 5] [µg/g creatinine]
1 | C/C(=N\C#N)N(C)Cc1ccc(Cl)nc1 [Acetamiprid, acetamiprid] | 0.28 | 0.10 ± 0.74 | <PQL | <PQL | 0.25 µg/g creatinine | 0.79 µg/g creatinine | 5.61 µg/g creatinine | 0.07 ± 0.20 | <PQL | <PQL | 0.23 µg/L | 0.33 µg/L | 1.29 µg/L | 1.03 | 0.043 | 0.586 | – | –
2 | CN/C(=N\[N+](=O)[O-])NCc1cnc(Cl)s1 [Clothianidin, clothianidin] | 0.81 | 0.26 ± 1.65 | <PQL | 0.21 µg/g creatinine | 0.43 µg/g creatinine | 4 µg/g creatinine | 9.4 µg/g creatinine | 0.17 ± 0.89 | <PQL | 0.14 µg/L | 0.45 µg/L | 2.62 µg/L | 4.33 µg/L | 15.06 | 1.06 | 0.596 | ~50 | –
3 | CN/C(=N/CC1CCOC1)N[N+](=O)[O-] (stereo not drawn) [Dinotefuran, dinotefuran] | 0.74 | 0.37 ± 1.64 | <PQL | <PQL | <PQL | 1.38 µg/g creatinine | 10.28 µg/g creatinine | 0.25 ± 0.76 | <PQL | <PQL | <PQL | 1.11 µg/L | 5.67 µg/L | 9.49 | 0.57 | 0.899 | – | –
4 | O=[N+]([O-])NC1=NCCN1Cc1ccc(Cl)nc1 [Imidacloprid, imidacloprid] | 0.23 | 0.08 ± 0.75 | <PQL | <PQL | <PQL | 0.43 µg/g creatinine | 5.76 µg/g creatinine | 0.06 ± 0.20 | <PQL | <PQL | <PQL | 0.36 µg/L | 1.45 µg/L | 1.59 | 0.13 | 0.133 | – | –
5 | CCN(Cc1ccc(Cl)nc1)/C(=C/[N+](=O)[O-])NC [Nitenpyram, nitenpyram] | 0 | – | <PQL | <PQL | <PQL | <PQL | <PQL | – | <PQL | <PQL | <PQL | <PQL | <PQL | 1.25 | 0.1 | – | – | 0
6 | C/C(=N\C#N)NCc1ccc(Cl)nc1 [N‐dm‐acetamiprid, N‐desmethyl‐acetamiprid] | 2.48 | 0.16 ± 10.78 | <PQL | <PQL | 0.35 µg/g creatinine | 8.28 µg/g creatinine | 76.56 µg/g creatinine | 0.11 ± 9.33 | <PQL | <PQL | 0.22 µg/L | 3.28 µg/L | 71.28 µg/L | 26.92 | 2.2 | – | – | –
7 | N#C/N=C1\SCCN1Cc1ccc(Cl)nc1 [Thiacloprid, thiacloprid] | 0.09 | 0.03 ± 0.44 | <PQL | <PQL | <PQL | <PQL | 3.41 µg/g creatinine | 0.02 ± 0.04 | <PQL | <PQL | <PQL | <PQL | 0.32 µg/L | 0.2 | 0.03 | 0.05 | – | –
8 | CN1COCN(Cc2cnc(Cl)s2)/C1=N\[N+](=O)[O-] [Thiamethoxam, thiamethoxam] | 0.29 | 0.10 ± 0.95 | <PQL | <PQL | <PQL | 0.5 µg/g creatinine | 6.96 µg/g creatinine | 0.07 ± 0.95 | <PQL | <PQL | <PQL | 0.42 µg/L | 7.30 µg/L | 2.11 | 0.17 | 0.6 | – | –
